In patent US20230263792A1, “USE OF 2,3,5-SUBSTITUTED THIOPHENE COMPOUND FOR PREVENTING, ALLEVIATION, OR TREATING MASTOCYTOSIS” (PHAROS IBIO CO., LTD, priority 2020, published 2023):

Tests used:
[1] = Body weight monitoring in mastocytosis mouse model; assay type: in vivo, NOD SCID female mice; conditions: 80 mg/kg oral once daily for 3 weeks
Experimental: (§1) Thereafter, when the average tumor volume reached 150 to 200 mm^3, 4 mice were assigned to each group so that the average tumor volume at each group and treatment time was the same between the groups. Then, each of imatinib at a dose of 90 mg/kg, sunitinib at doses of 20 and 40 mg/kg, and PHI-101 at doses of 7, 20, 40 and 80 mg/kg was administered orally to the mice once daily for 3 weeks. For oral administration, each compound was dissolved in 5% 1-methyl-2-pyrrolidone and then completely mixed in 15% Kolliphor, 30% PEG E400 HS15 and 50% 0.05M citric acid.
Specifically, while the presence or absence of abnormalities in the mastocytosis mouse model of Example 3-1 was monitored daily by checking the skin condition, bleeding and stool status, whether the body weight changed was checked by measuring the mouse body weight at intervals of 3 days after the start of oral administration of each drug. In addition, the width and length of the tumor were measured using a caliper at 3-day intervals, and the tumor volume was calculated using the following equation.

[2] = tested on: c-kit D816V mutant Ba/F3 cell line; assay: Cell cycle FACS assay, c-kit D816V Ba/F3; assay type: cell-based; conditions: 1 μM, 24 hours, FIGS. 4 and 5
Experimental: The c-kit D816V mutant Ba/F3 cell line was treated with 1 μM of PHI-101, and then the SubG1/GO-1 population was analyzed by cell cycle FACS assay.
Specifically, the c-kit D816V mutant Ba/F3 cell line was adjusted to a concentration of 1×10^6 cells/ml and treated with each of PHI-101 and the control compound sunitinib at a concentration of 1 μM for 24 hours. Thereafter, the medium was removed, and the c-kit D816V mutant Ba/F3 cell line was fixed in 70% ethanol at 4° C. for 24 hours, and then incubated in a PBS buffer solution containing 40 μg/ml of propidium iodide (PI) and 100 μg/ml of RNase for 30 minutes to completely stain the total DNA. Cell cycle analysis of the stained cells was performed using a flow cytometer (FACS-C6, BD). The proportion of cells in G0/G1 phase, S phase and G2/M phase was measured, and based on the measurement results, the SubG1/G0-1 population was determined.

[3] = tested on: HMC-1.2 cells subcutaneous tumor; assay: Tumor growth inhibition in mastocytosis mouse model with HMC-1.2 cell line; assay type: in vivo, NOD SCID female mice
Experimental: (§2) As mice, 6-8-week-old NOD SCID female mice (18 to 22 g) (GemPharmatech Co., Ltd.) were prepared. Mice were acclimatized for 7 days before use in the experiment, and mice with abnormal health were excluded from the experiment. Mice were bred in a cage (300×180×150 mm) at a 22±3° C. and a relative humidity of 40% to 70% with a 12-hr light/12-hr dark cycle. Mice were allowed access to sterilized dry granular food (Beijing Keaoxieli Feed Co., Ltd., Beijing, China) and water ad libitum for the entire experimental period except for the period specified in the protocol.
50 ml of HMC-1.2 cells suspension-cultured in a 75T flask were placed in a conical tube and centrifuged at 1,200 rpm for 2 minutes, centrifuged with DPBS (Dulbecco's Phosphate-Buffered Saline, Welgene) at 1,200 rpm for 2 minutes, washed, and then suspended in RPMI1640 (Welgene) without antibiotics and fetal bovine serum (FBS).
Thereafter, when the average tumor volume reached 150 to 200 mm^3, 4 mice were assigned to each group so that the average tumor volume at each group and treatment time was the same between the groups.
In addition, the width and length of the tumor were measured using a caliper at 3-day intervals, and the tumor volume was calculated using the following equation.
(V: tumor volume, W: tumor width, and L: tumor length)
In addition, the mice were sacrificed 3 weeks after the start of oral administration of each drug and the tumor weight was measured using a digital scale. For each data, one-way ANOVA was used to test the significance of each group.

[4] = tested on: inflammatory response caused by mastocytosis (HMC-1.2 mouse model); assay: Spleen/body weight ratio in mastocytosis mouse model (inflammatory response); assay type: in vivo, NOD SCID female mice
Experimental: as §2
50 ml of HMC-1.2 cells suspension-cultured in a 75T flask were placed in a conical tube and centrifuged at 1,200 rpm for 2 minutes, centrifuged with DPBS (Dulbecco's Phosphate-Buffered Saline, Welgene) at 1,200 rpm for 2 minutes, washed, and then suspended in RPMI1640 (Welgene) without antibiotics and fetal bovine serum (FBS). Then, the cells were stained with trypan blue, counted with a hemocytometer, and then HMC-1.2 cells (1×10^6) in a mixture of 0.1 ml L-15 and Matrigel (BD, cat. No. 356234) (1:1) were subcutaneously injected into the right flanks of mice anesthetized by intraperitoneal administration of Avertin (250 mg/kg), thus inducing tumors.
as §1
Specifically, 3 weeks after administering each drug to the mastocytosis mouse model of Example 3-1, the mice were sacrificed, the body weight and spleen weight were measured using a digital scale, and then the spleen/body weight ratio was calculated.

[5] = tested on: Ba/F3 cell line with a c-kit D816V mutation; assay: Growth inhibition of c-kit D816V Ba/F3 cell line (Celltiter glo); assay type: cell-based; conditions: GI50 comparison, Table 1
Experimental: Specifically, 100 μl of a Ba/F3 cell line with a c-kit D816V mutation (FIG. 1) was added to each well of a 96-well plate at a concentration of 10,000 cells/100 μl. After 4 hours, 100 μl of the Ba/F3 cell line was treated with 0.5 μl of each of control compounds and PHI-101 (10-point 1:3 serial dilutions) to a final concentration of up to 50 μM, and cultured at 37° C. under 5% CO2 for 72 hours. As the control compounds, imatinib and sunitinib which are c-kit inhibitors were used. After culture, the cells were counted using a Celltiter glo assay kit (Promega), and the 50% growth inhibition values (GI50, μM) of the control compounds and PHI-101 were measured.

[6] = 7 mg/kg oral once daily for 3 weeks
[7] = 20 mg/kg oral once daily for 3 weeks
[8] = 40 mg/kg oral once daily for 3 weeks
[9] = 80 mg/kg oral once daily for 3 weeks

Question: For `NC(=O)Nc1cc(C#Cc2cccc(F)c2)sc1C(=O)N[C@H]1CCCNC1` [PHI-101], which weight loss [1] is on record?
Answer: The weight loss was “no weight loss”.

Question: What about the “SubG1/G0-1 population (cell cycle progression)” value [2] of the same molecule?
Answer: The value was “SubG1/G0-1 population was increased”.

Question: What about the “Tumor growth inhibition (TGI) (%) Timor volume” value [3, 6] of the same molecule?
Answer: Its value is 30.2%.

Question: What about the “Tumor growth inhibition (TGI) (%) Tumor weight” value [3, 6] of the same molecule?
Answer: Its value is 32.7%.

Question: What about the “Tumor growth inhibition (TGI) (%) Timor volume” value [3, 7] of the same molecule?
Answer: Its value is 43.6%.

Question: And the “Tumor growth inhibition (TGI) (%) Tumor weight” value [3, 7]?
Answer: Its value is 51.6%.

Question: And the “growth of mastocytosis cells in mouse model” value ([3]; 40 mg/kg or more, versus control compounds, FIGS. 9 to 12)?
Answer: The value was “significantly inhibited compared to that in the group treated with each control compound”.

Question: What about the “Tumor growth inhibition (TGI) (%) Timor volume” value [3, 8] of the same molecule?
Answer: Its value is 68.4%.

Question: What about the “Tumor growth inhibition (TGI) (%) Tumor weight” value [3, 8] of the same molecule?
Answer: The value was 68.3%.

Question: What about the “Tumor growth inhibition (TGI) (%) Timor volume” value [3, 9] of the same molecule?
Answer: The value was 78.5%.

Question: And the “Tumor growth inhibition (TGI) (%) Tumor weight” value [3, 9]?
Answer: Its value is 82.7%.

Question: What about the “Spleen/body weight ratio % of control” value [4, 6] of the same molecule?
Answer: The value was 105.0%.

Question: And the “Spleen/body weight ratio Inhibition (%)” value [4, 6]?
Answer: Its value is −5%.

Question: And the “Spleen/body weight ratio % of control” value [4, 7]?
Answer: Its value is 95.0%.

Question: What about the “Spleen/body weight ratio Inhibition (%)” value [4, 7] of the same molecule?
Answer: The value was 5%.

Question: What about the “Spleen/body weight ratio % of control” value [4, 8] of the same molecule?
Answer: The value was 55.7%.

Question: What about the “Spleen/body weight ratio Inhibition (%)” value [4, 8] of the same molecule?
Answer: The value was 44.3%.

Question: And the “Spleen/body weight ratio % of control” value [4, 9]?
Answer: The value was 46.3%.

Question: What about the “Spleen/body weight ratio Inhibition (%)” value [4, 9] of the same molecule?
Answer: Its value is 53.7%.

Question: And the “spleen/body weight ratio compared to control group” value ([4]; 7, 20, 40 and 80 mg/kg, FIGS. 13 and 14)?
Answer: Its value is “decreased the spleen/body weight ratio in a concentration-dependent manner”.

Question: What about the “selectivity for c-kit D816V Ba/F3 over parental Ba/F3” value [5] of the same molecule?
Answer: The value was “higher selectivity for the c-kit D816V Ba/F3 mutant cell line than for the parental Ba/F3 cell line”.
